Measured values taken from patent publication US4452784A, “C-23-Modified derivatives of DMT” (Eli Lilly and Company, priority 1982, dated 1984).
≈ marks a conversion by molar mass, not a printed value. Where two headings read alike, the source gives them in different places.

Assays:
[1] = test system: Streptococcus pyogenes C203; experiment: ED50 in mice experimentally infected with S. pyogenes C203; assay type: in vivo; details: doses given 1 and 4 hours postinfection
Method: The C-23 modified derivatives of DMT of this invention have shown in vivo antimicrobial activity against experimentally-induced infections in laboratory animals. When two doses of test compound were administered to mice experimentally infected with S. pyogenes C203, the activity observed was measured as an ED50 value [effective dose in mg/kg to protect 50% of the test animals: see Warren Wick, et al., J. Bacteriol. 81, 233-235 (1961)].
^a mg/kg × 2; doses given 1 and 4 hours postinfection

[2] = test system: Pasteurella hemolytica 22C; experiment: Antibiotic activity, broth-dilution microtiter test (MIC); assay type: cell-based
Method: (§1) The MIC's in Table III were determined by standard agar-dilution assays. The MIC's in Table IV were obtained using a conventional broth-dilution microtiter test.
(§2) Antibiotic Activity of DMT Derivatives^a

Mycoplasma gallisepticum [3] = experiment: as above; assay type: cell-based; details: Mycoplasmoides gallisepticum, M. gallisepticum
Method: as §1, §2

[4] = test system: Pasteurella hemolytica 23C; experiment: as above; assay type: cell-based; details: P. hemolytica 23C
Method: as §1, §2

Mycoplasma hyorhinis = experiment: as above; assay type: cell-based
Method: as §1, §2

Staphylococcus aureus = experiment: as above; assay type: cell-based; details: S. aureus
Method: as §1, §2

[5] = test system: Pasteurella hemolytica 41D; experiment: as above; assay type: cell-based; details: P. hemolytica 41D
Method: as §1, §2

[6] = test system: Pasteurella multocida 68C; experiment: as above; assay type: cell-based; details: P. multocida 68C
Method: as §1, §2

Streptococcus bovis 80 = experiment: as above; assay type: cell-based; details: S. bovis 80
Method: as §1, §2

Mycoplasma synoviae = experiment: as above; assay type: cell-based; details: Mycoplasmopsis synoviae, M. synoviae
Method: as §1, §2

[7] = test system: Pasteurella multocida 22A; experiment: as above; assay type: cell-based; details: P. multocida 22A
Method: as §1, §2

[8] = test system: Pasteurella multocida 40G; experiment: as above; assay type: cell-based; details: P. multocida 40G
Method: as §1, §2

[9] = test system: Pasteurella multocida 60A; experiment: as above; assay type: cell-based; details: P. multocida 60A, avian isolate
Method: as §1, §2

[10] = test system: Pasteurella multocida 17E; experiment: as above; assay type: cell-based; details: P. multocida 17E, bovine isolate
Method: as §1, §2

[11] = test system: Streptococcus pneumoniae Park I; experiment: Antibiotic activity, standard agar-dilution assay (MIC); assay type: cell-based; details: S. pneumoniae Park I
Method: as §1
(§3) Antibiotic Activity of C-23 Modified Derivatives of DMT^a

[12] = test system: Streptococcus pyogenes C203; experiment: as above; assay type: cell-based; details: S. pyogenes C203
Method: as §1, §3

[13] = test system: Staphylococcus epidermidis EPI1; experiment: as above; assay type: cell-based; details: S. epidermidis EPI1
Method: as §1, §3

[14] = test system: Staphylococcus aureus X1.1; experiment: as above; assay type: cell-based; details: S. aureus X1.1
Method: as §1, §3

[15] = test system: Staphylococcus aureus S13E; experiment: as above; assay type: cell-based
Method: as §1, §3

[16] = test system: Streptococcus Group D X66; experiment: as above; assay type: cell-based
Method: as §1, §3

[17] = test system: Staphylococcus epidermidis EPI2; experiment: as above; assay type: cell-based; details: S. epidermidis EPI2
Method: as §1, §3

[18] = test system: Haemophilus influenzae R52; experiment: as above; assay type: cell-based; details: H. influenzae R52, ampicillin-resistant strain
Method: as §1, §3

[19] = test system: Haemophilus influenzae Holt; experiment: as above; assay type: cell-based; details: H. influenzae Holt, ampicillin-sensitive strain
Method: as §1, §3

[20] = test system: Staphylococcus aureus X400; experiment: as above; assay type: cell-based
Method: as §1, §3

[21] = test system: Staphylococcus aureus V41; experiment: as above; assay type: cell-based
Method: as §1, §3

Streptococcus Group 9960 = experiment: as above; assay type: cell-based; details: GROUP9960
Method: as §1, §3

Mycoplasma gallisepticum [22] = experiment: Antimycoplasmal activity of DMT derivatives in chicks; assay type: in vivo; details: for Number with Antibodies/Number Tested: antibodies to M. gallisepticum
Method: In these tests infections were induced in chicks by injecting 0.2 ml. of a broth culture of M. gallisepticum into the abdominal air sac of two- to three-day-old chicks. The compounds were administered subcutaneously at a dose of 60 mg/kg once only on the day of infection or, at the same level, two times on the day of infection and two times on the first day post-infection. Twenty-one days post-infection, the chicks were weighed, a blood sample was taken, and the chicks were sacrificed. The presence or absence of air-sac lesions was recorded.

[23] = agar dilution, S. aureus V41, penicillin-resistant strain, read-out: MIC
[24] = subcutaneous 60 mg/kg × 1, 21 days post-infection
[25] = subcutaneous 60 mg/kg × 4, 21 days post-infection
[26] = broth-dilution microtiter, P. hemolytica 22C, read-out: MIC
[27] = broth-dilution microtiter, M. hyorhinis, read-out: MIC
[28] = agar dilution, Streptococcus Group D X66, read-out: MIC
[29] = agar dilution, S. aureus X400, methicillin-resistant strain, read-out: MIC

| Compound | ED50 ([1]; C203, oral) [mg/kg] | ED50 ([1]; C203, sc, subcutaneous) [mg/kg] | MIC (Mycoplasma gallisepticum [3]) [µg/mL] | MIC [4] [µg/mL] | MIC (Staphylococcus aureus) [µg/mL] | MIC [5] [µg/mL] | MIC [6] [µg/mL] | MIC (Streptococcus bovis 80) [µg/mL] | MIC (Mycoplasma synoviae) [µg/mL] | MIC [7] [µg/mL] | MIC [8] [µg/mL] | MIC [9] [µg/mL] | MIC [10] [µg/mL] | MIC [11] [µg/mL] | MIC [12] [µg/mL] | MIC [13] [µg/mL] | MIC [14] [µg/mL] | MIC [15] [µg/mL] | MIC [17] [µg/mL] | MIC [19] [µg/mL] | other results |
| --- | --- | --- | --- | --- | --- | --- | --- | --- | --- | --- | --- | --- | --- | --- | --- | --- | --- | --- | --- | --- | --- |
| CCC1OC(=O)CC(O)C(C)C(OC2OC(C)C(OC3CC(C)(O)C(O)C(C)O3)C(N(C)C)C2O)C(CC=O)CC(C)C(=O)C=CC(C)=CC1CN=[N+]=[N-] (centres unmarked) [Compound 1, 23-Deoxy-23-Azido-DMT] | 68 | 10.5 | 0.19 (≈ 0.248 µM) | 25 (≈ 32.6 µM) | 1.56 (≈ 2.03 µM) | 25 (≈ 32.6 µM) | 6.25 (≈ 8.15 µM) | 0.39 (≈ 0.509 µM) | 0.78 (≈ 1.02 µM) | 12.5 (≈ 16.3 µM) | 6.25 (≈ 8.15 µM) | 6.25 (≈ 8.15 µM) | 6.25 (≈ 8.15 µM) | 0.06 (≈ 0.0782 µM) | 0.125 (≈ 0.163 µM) | 0.25 (≈ 0.326 µM) | 0.25 (≈ 0.326 µM) | 0.25 (≈ 0.326 µM) | 0.25 (≈ 0.326 µM) | 8 (≈ 10.4 µM) | MIC ([2]; 22C): 25 µg/mL (≈ 32.6 µM); MIC (Mycoplasma hyorhinis): > 50 µg/mL; MIC [16]: 0.5 µg/mL (≈ 0.652 µM); MIC [18]: 8 µg/mL (≈ 10.4 µM); MIC ([20]; X400): 0.5 µg/mL (≈ 0.652 µM); MIC [21, 23]: 0.25 µg/mL (≈ 0.326 µM); MIC (Streptococcus Group 9960): 0.25 µg/mL (≈ 0.326 µM); Number with Antibodies/Number Tested (Mycoplasma gallisepticum [22]; [24]): 5/10; Number with Antibodies/Number Tested (Mycoplasma gallisepticum [22]; [25]): 0/10; Mortality (Mycoplasma gallisepticum [22]; [24]): 0/10; Number with Air-Sac Lesions/Number Treated (Mycoplasma gallisepticum [22]; [24]): 3/10; Mortality (Mycoplasma gallisepticum [22]; [25]): 0/10; Number with Air-Sac Lesions/Number Treated (Mycoplasma gallisepticum [22]; [25]): 0/10 |
| CCC1OC(=O)CC(O)C(C)C(OC2OC(C)C(OC3CC(C)(O)C(O)C(C)O3)C(N(C)C)C2O)C(CC=O)CC(C)C(=O)C=CC(C)=CC1CN (centres unmarked) [Compound 2, 23-Deoxy-23-amino-DMT] | > 100 | < 1.5 | 1.56 (≈ 2.11 µM) | 12.5 (≈ 16.9 µM) | 6.25 (≈ 8.44 µM) | 12.5 (≈ 16.9 µM) | 12.5 (≈ 16.9 µM) | 1.56 (≈ 2.11 µM) | 0.78 (≈ 1.05 µM) | 12.5 (≈ 16.9 µM) | 12.5 (≈ 16.9 µM) | 12.5 (≈ 16.9 µM) | 6.25 (≈ 8.44 µM) | 0.5 (≈ 0.675 µM) | 1 (≈ 1.35 µM) | 4 (≈ 5.4 µM) | 2 (≈ 2.7 µM) | 4 (≈ 5.4 µM) | 8 (≈ 10.8 µM) | 16 (≈ 21.6 µM) | MIC [2, 26]: 25 µg/mL (≈ 33.7 µM); MIC (Mycoplasma hyorhinis; [27]): 25 µg/mL (≈ 33.7 µM); MIC [16, 28]: 8 µg/mL (≈ 10.8 µM); MIC [18]: 16 µg/mL (≈ 21.6 µM); MIC [20, 29]: 8 µg/mL (≈ 10.8 µM); MIC [21, 23]: 8 µg/mL (≈ 10.8 µM); MIC (Streptococcus Group 9960): 8 µg/mL (≈ 10.8 µM) |
| CCC1OC(=O)CC(O)C(C)C(OC2OC(C)C(OC3CC(C)(O)C(O)C(C)O3)C(N(C)C)C2O)C(CC=O)CC(C)C(=O)C=CC(C)=CC1CNC(=O)Cc1ccccc1 (centres unmarked) [Compound 3, 23-Deoxy-23-(phenylacetyl)amino-DMT] | > 100 | 3.8 | 0.09 (≈ 0.105 µM) | 25 (≈ 29.1 µM) | 1.56 (≈ 1.82 µM) | 25 (≈ 29.1 µM) | 25 (≈ 29.1 µM) | 0.19 (≈ 0.221 µM) | 0.39 (≈ 0.454 µM) | 50 (≈ 58.2 µM) | 25 (≈ 29.1 µM) | 25 (≈ 29.1 µM) | 12.5 (≈ 14.6 µM) | 0.25 (≈ 0.291 µM) | 0.25 (≈ 0.291 µM) | 0.5 (≈ 0.582 µM) | 0.5 (≈ 0.582 µM) | 0.5 (≈ 0.582 µM) | 1 (≈ 1.16 µM) | 8 (≈ 9.31 µM) | MIC [2, 26]: 50 µg/mL (≈ 58.2 µM); MIC (Mycoplasma hyorhinis; [27]): 1.56 µg/mL (≈ 1.82 µM); MIC [16, 28]: 0.5 µg/mL (≈ 0.582 µM); MIC [18]: 8 µg/mL (≈ 9.31 µM); MIC ([20]; X400): 1 µg/mL (≈ 1.16 µM); MIC ([21]; V41): 1 µg/mL (≈ 1.16 µM); MIC (Streptococcus Group 9960): 0.5 µg/mL (≈ 0.582 µM); Number with Antibodies/Number Tested (Mycoplasma gallisepticum [22]; [24]): 8/9; Number with Antibodies/Number Tested (Mycoplasma gallisepticum [22]; [25]): 3/10; Mortality (Mycoplasma gallisepticum [22]; [24]): 1/10; Number with Air-Sac Lesions/Number Treated (Mycoplasma gallisepticum [22]; [24]): 8/10; Mortality (Mycoplasma gallisepticum [22]; [25]): 0/10; Number with Air-Sac Lesions/Number Treated (Mycoplasma gallisepticum [22]; [25]): 0/10 |
| CCC1OC(=O)CC(O)C(C)C(OC2OC(C)C(OC3CC(C)(O)C(O)C(C)O3)C(N(C)C)C2O)C(CC=O)CC(C)C(=O)C=CC(C)=CC1CSc1ccccc1 (centres unmarked) [Compound 4, 23-Deoxy-23-(phenyl)thio-DMT] | 71 | < 25 | ≤ 0.05 | 25 (≈ 30 µM) | 0.39 (≈ 0.468 µM) | 12.5 (≈ 15 µM) | 12.5 (≈ 15 µM) | 0.19 (≈ 0.228 µM) | 0.19 (≈ 0.228 µM) | 12.5 (≈ 15 µM) | 6.25 (≈ 7.49 µM) | 6.25 (≈ 7.49 µM) | 6.25 (≈ 7.49 µM) | 0.03 (≈ 0.036 µM) | 0.125 (≈ 0.15 µM) | 0.5 (≈ 0.599 µM) | 0.5 (≈ 0.599 µM) | 0.5 (≈ 0.599 µM) | 0.5 (≈ 0.599 µM) | 4 (≈ 4.8 µM) | MIC [2, 26]: 25 µg/mL (≈ 30 µM); MIC (Mycoplasma hyorhinis; [27]): 0.78 µg/mL (≈ 0.935 µM); MIC [16, 28]: 0.25 µg/mL (≈ 0.3 µM); MIC [20, 29]: 0.5 µg/mL (≈ 0.599 µM); MIC [21, 23]: 0.25 µg/mL (≈ 0.3 µM); MIC (Streptococcus Group 9960): 0.125 µg/mL (≈ 0.15 µM); Number with Antibodies/Number Tested (Mycoplasma gallisepticum [22]; [24]): 8/10; Number with Antibodies/Number Tested (Mycoplasma gallisepticum [22]; [25]): 7/10; Mortality (Mycoplasma gallisepticum [22]; [24]): 0/10; Number with Air-Sac Lesions/Number Treated (Mycoplasma gallisepticum [22]; [24]): 7/10; Mortality (Mycoplasma gallisepticum [22]; [25]): 0/10; Number with Air-Sac Lesions/Number Treated (Mycoplasma gallisepticum [22]; [25]): 3/10 |
